# Values quoted from earlier work as cited in publication PMC11562494 (BMC Chemistry, 2024).
# What was measured:
# E. coli = details: cited from earlier work
# Pseudomonas aeruginosa = details: cited from earlier work
# Escherichia coli = details: cited from earlier work
# WI38 cells = details: read-out: WI-38 IC50 ± SD; normal WI38 cells, MTT; cited from earlier work
# S. aureus = details: cited from earlier work
smiles,measurement,setting,value
CC1(C)S[C@@H]2[C@H](NC(=O)[C@H](N)c3ccc(O)cc3)C(=O)N2[C@H]1C(=O)O [amoxicillin],MIC E. coli,E. coli,0.01 µM
[H]/N=C(/N)N[C@H]1[C@H](O)[C@@H](O)[C@H](O[C@@H]2O[C@@H](C)[C@](O)(C=O)[C@H]2O[C@@H]2O[C@@H](CO)[C@H](O)[C@@H](O)[C@@H]2NC)[C@@H](N/C(N)=N\[H])[C@@H]1O [streptomycin],IZ Pseudomonas aeruginosa,Pseudomonas aeruginosa,24 mm
same,IZ E. coli,Escherichia coli,25 mm
"O=C(O)c1cn(C2CC2)c2cc(N3CCNCC3)c(F)cc2c1=O [Cipro., ciprofloxacin]",IC50,WI38 cells,23.9 ± 1.58 µM
same,IZ S. aureus,S. aureus,22 mm
